Experimental data from PMC11783601, “Analogue-Sensitive Inhibition of Histone Demethylases Uncovers Member-Specific Function in Ribosomal Protein Synthesis” (Journal of the American Chemical Society, 2025).

Tested on: nascent protein synthesis in HEK293T cells
Test: BONCAT: confocal imaging of TAMRA alkyne ligated nascent proteins in fixed cells
Assay type: cell-based, human
Method: To visualize the nascent proteins in intact cells, we performed click ligation on fixed cells with TAMRA alkyne, followed by confocal imaging. Treatment with AHA led to a robust fluorescence signal primarily in the cytoplasm compared to untreated cells indicating cytoplasmic protein synthesis (Figure 5D,E). […]
and 6 ug of Thermo Turbofect (FERR0531). KDM4A siRNA was transfected into cells using 10nM siRNA (Thermo 4392420) with 1:2 ug amount of Thermo Turbofect (FERR0531). Cells were washed 4 hours later and fresh DMEM was applied. The next day, the cells were treated with inhibitor (L-leucine NOG) and grown for 24 hours. […] The lysate was quantified with Bradford dye and 40 ug of lysate was incubated with 1 mM Tris[(1-benzyl-1H-1,2,3-triazol-4-yl)methyl]amine (TBTA […]
For analysis of AHA incorporation measured by fixed cell imaging, HEK293-T cells (ATCC CRL-1573) were grown in a 24 well plate (Corning) on poly-D-lysine (Gibco A3890401) treated glass coverslips (ThermoScientific 12-545-81P) overnight and transfected the next day with 500 ng KDM4A WT/F185A or Empty Vector (EV) equivalent using 1:2 ug of Thermo Turbofect (FERR0531). […]
(Sigma B2883-25MG) for 30 seconds, washed with PBS and finally adhered to a slide with gelvatol. […] Images were analyzed on ImageJ open-source software and NIS elements software. […]

SMILES | TAMRA signal of nascent proteins (confocal imaging) (fixed HEK293T cells overexpressing F185A, to the level of cells expressing control vector) | TAMRA signal of nascent proteins (confocal imaging) (fixed HEK293T cells, endogenous KDM4A, compared with KDM4A silencing)
CCCCCCCCOC(=O)C(=O)NC(CC(C)C)C(=O)O [6A, L-Leu octyl-ester NOG] | subsequently inhibited | –
CCCCCCCCOC(=O)c1ccc(O)c2ncccc12 [n-octyl IOX1] | – | phenocopied
